Laboratory results taken from patent US20250295776A1, “CLEAVAGE RESISTANT CD16 CONSTRUCTS AND USES THEREOF” (Celularity Inc., priority 2022, published 2025).

Legend:
CD34+ cells [1] = assay: NK cell expansion in 35-day three-stage culture with CRL compounds; format: cell-based, human; settings: for cell expansion compared to SR1: 10 μM, Day 35; for expansion, differentiation and cytotoxicity profiles compared to SR1: PNK-007 culture
Source text: (§1) UCB CD34+ cells were cultivated in presence of cytokines including thrombopoietin, SCF, Flt3 ligand, IL-7, IL-15 and IL-2 for 35 days to produce three-stage NK cells, as described in Example 1. Multi-color flow cytometry was used to determine the phenotypic characteristics of three-stage NK cells.
(§2) For biological testing, the compounds were provided to culture to evaluate their effects on NK cell expansion and differentiation. Specifically, donors of CD34+ cells (StemCell Technology) were thawed and expanded in vitro following NK culture protocol. During the first 14 days of the culture, each CRL compounds was dissolved in DMSO and added to the culture at 10 μM concentration. SR1 (at 10 μM) served as a positive control compound, while DMSO alone without any compound served as a negative control. At the end of the culture on Day 35, cell expansion, natural killer (NK) cell differentiation and cytotoxicity of the cells against K562 tumor cell line were characterized. Due to the large number of the compounds, the testing was performed in two experiments, CRL1-11 and CRL 12-22. The same donors were used for each experiment. Positive and negative controls were also included in both experiments.

CD34 cells = assay: CD34 cell expansion at Day 14 of the culture with CRL compounds; format: cell-based, human; settings: 10 μM
Description: as §2

CD34+ cells [2] = assay: NK cell differentiation of compound-cultured cells (flow cytometry); format: cell-based, human
Source text: as §1, §2

K562 tumor cell line = assay: Cytotoxicity of compound-cultured cells against K562; format: cell-based; settings: 10:1 E:T ratio
Description: as §2
Cytotoxicity assay was run using compound cultured cells against K562 tumor cells at 10:1 effector to target ratio (FIGS. 5A-5B) to evaluate cell functions.

CD16 [3] = assay: CD16 expression of CD16 variants transduced CYNK cells (flow cytometry); format: cell-based, human
Description: (§3) Human placental CD34+ cells were transduced with a lentivirus vector expressing a CD16 variants as indicated and cultured for 35 days in the presence of cytokines, including thrombopoietin, SCF, Flt3 ligand, IL-7, IL-15 and IL-2, to generate CYNK cells.
The phenotype of CYNK cells was analyzed by multicolor flow cytometry. CYNK cells were washed and stained with fluorochrome-conjugated antibodies diluted in staining buffer [2% fetal bovine serum (FBS) in phosphate buffered saline (PBS)] according to the manufacturer's protocol. Dead cells were labelled with the Live/Dead Fixable Aqua Stain (Invitrogen, Cat #L34957) and gated out. Data were acquired on BD Fortessa X20 flow cytometer (BD Biosciences) and were analyzed using FlowJo software. The data were expressed as % positive cells gated under CD56+CD3-Aqua− single cells based on the viability staining used. Setting of the % positive gate was done using the corresponding isotype-stained samples as controls.

CD16 [4] = assay: Shedding assay of CD16 variants transduced CYNK cells (PMAi 2 h); format: cell-based, human; settings: for CD16 shedding percentage: post 2 h PMAi stimulation, n=6 donors, Lentigen LVV
Description: Non-transduced (NT) CYNK cells were used as a control. After 2-hour stimulation, cells from each treatment condition were then washed twice with FACS buffer (PBS with 0.5 mM EDTA and 2% FBS) and incubated human Fc block (BD Biosciences, Cat #564220) at room temperature for 10 minutes. Staining was then performed with anti-human CD16 PE (BD Biosciences, Cat #556619), anti-human CD56 APC (BD Biosciences, Cat #555518), and anti-human CD3 APC-H7 (BD Biosciences, Cat #560176), or with the corresponding isotype controls for 30 minutes at 4° C. Following washing 2× with FACS buffer the viability stain 7-Aminoactinomycin D (7-AAD) (BD Biosciences, Cat #559925) was added to all stained samples and incubated for ten minutes prior to data acquisition. The data was acquired on a […] (BD Biosciences, San Jose, CA) and analyzed in FlowJo (Tree Star, Ashland, OR). The data were expressed as % CD56^+CD16+ cells gated under 7-AAD^− cells. Setting of the % positive gate was done using isotype-stained samples as controls.

[5] = system: HER2+ NCI-N87 gastric tumor cell line; assay: xCELLigence real time cell analysis ADCC assay with trastuzumab against NCI-N87; format: cell-based; settings: 4 h and 24 h; E:T ratio of 2:1
Description: The HER2^+ NCI-N87 gastric tumor cell line was used as the target cells. CD16 variant transduced CYNK cells were thawed followed by two days recovery were used as the effector cells. […] Target cells were seeded at 8×10^4 cells/well in the 96-well plates in 100 μl assay buffer for 24 hours at 37° C. in 5% CO2. […] CYNK cells were added post 30 minutes antibodies incubation at 37° C. with 5% CO2.
The xCELLigence real time cell analysis (RTCA) system (ACEA Biosciences, San Diego, CA) was used for the determination of the ADCC response mediated by the combination of antibody and effector cells. This system can determine the real time proliferation or cell death in each well of a specialized 96-well plate with electrodes attached to the bottom E-plate by measuring cell adherence as determined by the impedance of the electrical signal that passes through the plate. The more cells that are attached to the bottom of the well the higher the resulting impedance or cell index that is measured. The cell index over time in wells with effector cells, antibody, and target is compared to the cell index in wells with target alone and is converted to a percent cytolysis.
Target cells were incubated with the effector cells in the presence of the antibodies in 200 μl final volume for 24 hours. The xCELLigence software was then used to determine the percent cytotoxicity at 4 and 24 hours of co-culture time.

[6] = system: HER2+ NCI-N87 gastric tumor cell line; assay: Cytokine secretion assay (Luminex) of CD16 variants transduced CYNK cells with NCI-N87; format: cell-based
Description: Two-day in vitro recovered CYNK cells were used in this assay as the effector cells. The HER2^+ NCI-N87 gastric tumor cell line was used as the target cell. […] The supernatant was then collected after 24 h and used for downstream analysis. The cytokine concentrations were determined by Luminex analysis using a customer selected MILLIPLEX MAP magnetic bead kit (EMD Millipore, Billerica, MA, Cat #HCD8MAG-15K-07 for GM-CSF, TNF-α, and IFN-γ) according to the protocol provided by the manufacturer. The data were analyzed using Belysa software (Millipore Sigma).

[7] = system: human placental CD34+ cells; assay: Fold expansion of CD16 variants transduced CYNK cells; format: cell-based
Source text: as §3

CD16 [8] = assay: NK surface markers and CD16 expression of PNK-CD16VP cells (flow cytometry, day 35); format: cell-based, human; settings: n=8
Description: Non-transduced PNK cells (NT) served as a control. […] IgG was used as ADCC control. In vivo anti-tumor activity was assessed in a Daudi disseminated Xenograft model in NSG mice. […] Tumor burden in mice was monitored by Bioluminescence Imaging (BLI). Statistical differences between the groups were calculated using paired t-test using Prism.
Cell Expansion and Characterization: Cell expansion was recorded during the culture process.

CD16 [9] = assay: CD16VP shedding assay (PMA/ionomycin); format: cell-based, human
[10] = MOI 200, Myc tag, Sirion Bio LVV
[11] = in the presence of trastuzumab and NCI-N87
[12] = in the presence of Trastuzumab, E:T ratio of 1:1

## N#Cc1cncc(-c2nc(NCCc3c[nH]c4ccccc34)c3occc3n2)c1 [CRL22, 5-(4-((2-(1H-indol-3-yl)ethyl)amino)furo[3,2-d]pyrimidin-2-yl)nicotinonitrile]
CD34+ cells [1]
  cell expansion compared to SR1: supported cell expansion the best
  expansion, differentiation and cytotoxicity profiles compared to SR1: very similar
CD34 cells
  CD34 cell expansion: achieved the highest CD34 cell expansion

## Cc1cncc(-c2nc(NCCc3c[nH]c4ccccc34)c3scc(C(C)C)c3n2)c1 [CRL21, N-(2-(1H-indol-3-yl)ethyl)-7-isopropyl-2-(5-methylpyridin-3-yl)thieno[3,2-d]pyrimidin-4-amine]
CD34+ cells [1]
  cell expansion compared to SR1: slightly less expansion
CD34+ cells [2]
  CD56+/CD11a+ subpopulation compared to SR1: increased
K562 tumor cell line
  killing activities compared to cells cultured with SR1: increased killing activities

## Construct #1: CD16 variant: 176 V (also referred to as 158 V); 197 Glycine (G); with or without Myc tag
CD16 [3]; Lentigen LVV, 6 donors
  CD16 expression at Day10, Day35 and post thaw compared to CD16VP: comparable CD16 expression
CD16 [3]; [10]
  CD16 expression at Day10, 21, 28, 35 and 40 compared to CD16VP: comparable CD16 expression
  CD16 expression at Day 10 compared to CD16VP: comparable CD16 expression
CD16 [4]; Myc tag, Sirion Bio LVV
  CD16 shedding post PMAi stimulation: trend of shedding resistance
CD16 [4]
  CD16 shedding percentage: 9.4%±8.5%
[5]
  cytotoxicity change (CYNK+Trastuzumab − CYNK+IgG) compared to NT: significant difference
[6]; [11]
  GM-CSF secretion compared to NT: significant difference
  cytokine secretion (IFNg, TNFa and GM-CSF) compared to CD16VP: no significant difference
[7]; Lentigen LVV, n=6 donors
  fold expansion compared to CD16VP and NT: comparable fold expansion
[7]; Myc tag, Sirion Bio LVV
  fold expansion compared to CD16VP: comparable fold expansion

## Fc1cncc(-c2nc(NCCc3c[nH]c4ccccc34)c3occc3n2)c1 [CRL19, N-(2-(1H-indol-3-yl)ethyl)-2-(5-fluoropyridin-3-yl)furo[3,2-d]pyrimidin-4-amine]
CD34+ cells [1]
  cell expansion compared to SR1: supported cell expansion the best
  expansion, differentiation and cytotoxicity profiles compared to SR1: very similar
CD34 cells
  CD34 cell expansion: achieved the highest CD34 cell expansion

## Cc1cncc(-c2nc(NCCc3c[nH]c4ccccc34)c3occc3n2)c1 [CRL20, N-(2-(1H-indol-3-yl)ethyl)-2-(5-methylpyridin-3-yl)furo[3,2-d]pyrimidin-4-amine]
CD34+ cells [1]
  cell expansion compared to SR1: supported cell expansion the best
  expansion, differentiation and cytotoxicity profiles compared to SR1: very similar
CD34 cells
  CD34 cell expansion: achieved the highest CD34 cell expansion

## CD16VP: high affinity (158 Val) and proteinase cleavage resistant (197Pro) CD16 variant
CD16 [8]
  CD16 expression: ~65%
CD16 [9]
  CD16VP expression after activation: resistant to shedding
CD16 [3]; 6 donors
  CD16 expression: 61.9% ± 15.4%
CD16 [4]; 6 donors
  CD16 shedding resistance post PMAi stimulation: Yes
CD16 [4]
  CD16 shedding percentage: 4.3%±3.0%
[5]
  cytotoxicity change (CYNK+Trastuzumab − CYNK+IgG) compared to NT: significant difference
[6]; [12]
  GM-CSF secretion against NCI-N87: 5.4 ± 2.7 ng/1 × 10^6 cells
  IFNg secretion against NCI-N87: 1.8 ± 1.6 ng/1 × 10^6 cells
  TNFa secretion against NCI-N87: 0.8 ± 0.3 ng/1 × 10^6 cells
[6]; [11]
  GM-CSF secretion compared to NT: significant difference

## CC(C)c1csc2c(NCCc3c[nH]c4ccccc34)nc(-c3cncc(C#N)c3)nc12 [CRL17, 5-(4-((2-(1H-indol-3-yl)ethyl)amino)-7-isopropylthieno[3,2-d]pyrimidin-2-yl)nicotinonitrile]
CD34+ cells [1]
  cell expansion compared to SR1: slightly less expansion
CD34+ cells [2]
  CD56+/CD11a+ subpopulation compared to SR1: increased
K562 tumor cell line
  killing activities compared to cells cultured with SR1: increased killing activities

## CC(C)c1csc2c(NCCc3c[nH]c4ccccc34)nc(-c3cncc(F)c3)nc12 [CRL18, N-(2-(1H-indol-3-yl)ethyl)-2-(5-fluoropyridin-3-yl)-7-isopropylthieno[3,2-d]pyrimidin-4-amine]
CD34+ cells [1]
  cell expansion compared to SR1: slightly less expansion
CD34+ cells [2]
  CD56+/CD11a+ subpopulation compared to SR1: increased
K562 tumor cell line
  killing activities compared to cells cultured with SR1: increased killing activities
